Measurements: patent publication US20250090626A1, “NEW PEPTIDE AND USES THEREOF” (Neo Cremar Co., Ltd., priority 2021, published 2025)

Key:
Type in all cases: cell-based, mouse
[1] = system: C2C12 cells; assay: C2C12 cell proliferation (MTT method)
Procedure: C2C12 cells, a mouse myoblast line, were cultured in Dulbecco's Modified Eagle's Medium (DMEM)+10% fetal bovine serum (FBS)+1% penicillin/streptomycin (P/S). To validate the effect of MIF peptide, C2C12 cells (2×10^3 cells/ml) were placed in a 12 well cell culture dish and attached for 24 hours, and MIF peptide (1000 nM) was treated for 1 day to observe cell proliferation by MTT method. The medium was replaced every 2 days, and the cells were cultured at 37° C.
To validate cell proliferation, the culture medium of the cells was removed, the cells were washed with DMEM, 500 μl of MTT reagent (0.5 mg/ml) dissolved in phosphate buffered saline (PBS) was added to each well, and the cells were left at 37° C. for 1 hour. The reaction solution was removed, and 1000 μl of DMSO was added to each well. Purple formazan crystals were completely dissolved in DMSO, and the absorbance was measured at 540 nm.

[2] = system: C2C12 cells; assay: Myodifferentiation, Giemsa staining, root canal formation and fusion index
Procedure: When C2C12 cells were 70% grown, media were replaced with myodifferentiation medium added with MSTN protein (1 ng), Ac-MIF1 (1000 nM), and Ac-MIF1 (1000 nM)+MSTN protein (1 ng) from proliferation medium, followed by culture for 3 days.
When the cells grew more than 70% for differentiation of myoblasts into myocytes, they were cultured for 3 days by replacing with a differentiation medium (DMEM+2% FBS+1% P/S). The medium was replaced once daily, and the cells were cultured at 37° C.
The cell medium was removed, and the cells were washed with PBS. After washing, a methanol:PBS reagent in a 1:1 volume ratio was treated, followed by fixation for 2 minutes. Additionally, after a methanol:PBS reagent in a 2:1 volume ratio was added, fixation was followed for additional 2 minutes. After 2 minutes, 0.04% Giemsa reagent was added, and then the cells were left for 30 minutes, washed with PBS after 30 minutes, and observed under a microscope, with 3 photographs taken for each cell (300×). In the photographs taken, the number of fused nuclei in the root canal cells was counted, the number of nuclei of total cells was counted, and the number of fused nuclei was divided by the number of nuclei of the total cells to obtain the % value.

[3] = system: C2C12 cells; assay: Scratch experiment, degree of cell recovery; details: C2C12, 1000 nM peptide, 1 day in proliferation medium
Procedure: When the C2C12 cells were 100% grown, cells were scratches on the surface, treated with 1000 nM MIF1 or Ac-MIF1 peptides, and cultured for 1 day, followed by observation for a degree of cell recovery.

[4] = system: C2C12 cells; assay: mRNA expression of myodifferentiation and sarcopenia factors (real-time PCR); details: C2C12 myodifferentiation, peptide-treated vs untreated
Procedure: After adding 1 ml of TRIzol™ reagent, the cells were crushed using a sonicator. After centrifugation of the crushed sample (12,000 rpm, 10 min, 4° C.), the supernatant was transferred to a new tube, added with 200 μl of chloroform, and left at room temperature for 10 minutes. After 10 minutes, centrifugation (12,000 rpm, 10 min, 4° C.) was performed, yielded a transparent supernatant. Next, 500 μl of isopropanol was added, the mixture was left for 10 minutes, and centrifugation was performed to obtain RNA pellets. After washing by adding 70% ethanol (distilled water treated with ethanol+diethylpyrocarbonate (hereinafter referred to as DEPC)) to the RNA pellets, complete removal and drying were followed. The dried transparent RNA was added with DEPC-treated distilled water and then stored at −80° C. Total RNA volume was measured by nanodrop, and the 18s and 28s bands were detected in 1.2% agarose gel. cDNA was synthesized with 2 μg of total RNA, random hexamer primers, and reverse transcriptase (25° C.: 10 min, 37° C.: 120 min, 85° C.: 5 min).
Real-time PCR (RT-PCR) was performed for detecting gene expression. For observation of real-time gene expression, gene expression was analyzed using the Power SYBR Green PCR Master Mix, which includes fluorescent materials of SYBR green (7500 Real-time PCR system). The PCR primer was designed with Primer 3 software (http://frodo.wi.mit.edu) according to the nucleotide sequence secured from NCBI GenBank. PCR was performed 40 times at 95° C. for 10 minutes, again at 95° C. for 33 seconds, at gene primer temperature (tm) for 33 seconds, and at 72° C. for 33 seconds. Gene expression values were analyzed through the analysis of c(t) values obtained through real-time PCR analysis (fold change 2-^ΔΔCt formula). Setting the gene expression value of the untreated cells to 1, the gene expression value of the treated cells was calculated. In the analysis of gene c(t) values, normalization was conducted with the glyceraldehyde-3-phosphate dehydrogenase (GAPDH).

[5] = system: C2C12 cells; assay: Protein expression of myodifferentiation and sarcopenia factors (Western blot, immunocytochemistry); details: C2C12 myodifferentiation, peptide-treated vs untreated
Procedure: The medium of cultured C2C12 cells was removed and washed once with PBS. The washed cells were treated with 4% formaldehyde (Sigma), fixed for 15 minutes, then washed using PBS, added with 0.2% trypton X-100 (Sigma), and left for 5 minutes. After washing again using PBS, adding 1% normal goat serum, and leaving for 30 minutes, the primary antibody (MYOD, myogenin (MYOG):myosin light chain (MYL2); 1:50) was added to carry out a reaction at 4° C. for 14 hours. The antibodies were removed, washing was performed 3 times with PBS for 10 minutes, and then the cells were left with secondary antibody (Alexa Fluor 488 goat anti-Mouse & rabbit SFX kit t) for 1 hour. After 1 hour, the antibodies were removed, washing was performed with PBS for 10 minutes, the nuclei were stained with 4′,6-diamidino-2-phenylindol (DAPI), and the expression of the proteins was observed using fluorescence microscopy.
(1) The medium of cultured C2C12 cells was removed, followed by washing with PBS. After adding LIPA buffer and protease inhibitor to the washed cells, the proteins included in the supernatant were collected after centrifugation for 10 minutes at 12000 rpm. 40 μg of the extracted proteins were subjected to electrophoresis in 8 to 10% acrylamide gel and then transferred to a polyvinylidene fluoride (PVDF) membrane (Milipore). These were blocked with 3% skim milk or bovine serum albumin (BSA) at room temperature for 1 hour. Afterwards, primary antibody diluted in 1% skim milk or BSA (Pax7; 1:500, MYOD; 1:500, MYOG; 1:400, MYL2; 1:1000, MYH; 1:500, MSTN; 1:1000, β-actin; 1:1000, MuRF1; 1:400, and Atrogin; 1:1:400) was added and reacted at 4° C. for over 16 hours. After 16 hours, cells were washed three times with TBST (Tris-buffered saline with Tween 20) and reacted with secondary antibody with horseradish peroxidase (HRP) conjugated at room temperature for 1 hour. It was washed three times with TBST and developed after adding Super Signal West Pico Chemiluminescent Substrate.

Substance | proliferation of cells compared to untreated cells ([1]; C2C12, MSTN protein in proliferation medium, FIG. 3) | differentiation of cells compared to untreated cells ([2]; C2C12, MSTN protein in differentiation medium, FIG. 3) | root canal formation compared to untreated cells ([2]; C2C12, differentiation medium, 3 days) | cell proliferation, increase compared to cells without peptide treatment ([1]; C2C12, peptide 1000 nM, 1 day, MTT, FIG. 4) | scratch recovery degree, increase compared to untreated cells [3] | fusion index, increase compared to untreated cells ([2]; C2C12, differentiation medium including peptide, 3 days) | Atrogin1 mRNA expression [4] | MSTN mRNA expression [4] | MYH mRNA expression [4] | MSTN protein expression [5] | MYH protein expression [5] | MYL2 protein expression [5] | MYOD protein expression [5] | MYOG protein expression [5] | MuRF1 protein expression [5]
MSTN protein: myostatin protein that inhibits the proliferation and differentiation of myoblasts [reference compound] | reduced | reduced | reduced | – | – | – | – | – | – | – | – | – | – | – | –
VDFEAFWDWG [MIF1] | – | – | – | 11% | 22% | 4% | decreased | decreased | increased | increased | increased | increased | increased | increased | decreased
